Read-outs that look alike come from different tables or passages of the source.
Tests used:
Format in all cases: biochemical
CDK1/cyclin B = CDK1/cyclin B (Homo sapiens (Human), UniProt P06493); assay: CDK1/Cyclin B enzymatic activity assay (IMAP-FP)
Excerpt: A 384-well microtiter IMAP-FPT™ (Molecular Devices Trade Mark Technology) endpoint assay was used for CDK1/cyclin B kinase activity measurements. The same assay was used for IC50 determination of small molecule inhibitors.

CDK2/cyclin A = CDK2/cyclin A (Homo sapiens (Human), UniProt P24941); assay: CDK2/Cyclin A enzymatic activity assay (IMAP-FP)
CDK4/cyclin D1 = CDK4/cyclin D1 (Homo sapiens (Human), UniProt P11802); assay: CDK4/Cyclin D1 enzymatic activity assay (Lance TR-FRET)
Sequence of CDK4/cyclin D1 (P11802 whole entry): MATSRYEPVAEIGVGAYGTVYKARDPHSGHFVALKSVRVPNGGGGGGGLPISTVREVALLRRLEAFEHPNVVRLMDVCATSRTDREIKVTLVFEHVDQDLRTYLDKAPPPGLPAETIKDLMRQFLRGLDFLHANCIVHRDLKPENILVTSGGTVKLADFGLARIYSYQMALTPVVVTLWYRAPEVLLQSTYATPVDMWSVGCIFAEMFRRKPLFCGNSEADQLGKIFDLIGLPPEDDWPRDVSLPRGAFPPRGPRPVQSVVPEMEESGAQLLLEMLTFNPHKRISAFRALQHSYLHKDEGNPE
Sequence of CDK4/cyclin D1 (P24385 whole entry partner): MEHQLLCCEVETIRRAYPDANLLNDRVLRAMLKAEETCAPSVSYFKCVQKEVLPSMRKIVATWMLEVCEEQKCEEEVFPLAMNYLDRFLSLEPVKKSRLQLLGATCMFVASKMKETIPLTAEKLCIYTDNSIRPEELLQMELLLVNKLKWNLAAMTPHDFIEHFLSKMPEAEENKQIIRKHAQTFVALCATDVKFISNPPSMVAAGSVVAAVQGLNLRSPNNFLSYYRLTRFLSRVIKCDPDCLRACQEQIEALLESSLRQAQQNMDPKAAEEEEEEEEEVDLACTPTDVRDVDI
In short: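 Recombinant His6-CDK4/GST-cyclin D1 (Sf21-expressed), 0.3 nM, phosphorylated 175 nM pRb152 with 3 μM ATP in HEPES pH 7.5, Mg/Mn buffer, 2% DMSO, 60 min at room temperature. Compound range 0.005-10 μM. EDTA-quenched; pRb S780 phosphorylation read by TR-FRET (Eu anti-rabbit/APC-streptavidin) for IC50.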

[1] = Table 2, 20 μM ATP, read-out: CDK1
[2] = Table 2, 3 μM ATP, read-out: CDK4

Sequence of CDK1/cyclin B (P06493 whole entry, species assumed): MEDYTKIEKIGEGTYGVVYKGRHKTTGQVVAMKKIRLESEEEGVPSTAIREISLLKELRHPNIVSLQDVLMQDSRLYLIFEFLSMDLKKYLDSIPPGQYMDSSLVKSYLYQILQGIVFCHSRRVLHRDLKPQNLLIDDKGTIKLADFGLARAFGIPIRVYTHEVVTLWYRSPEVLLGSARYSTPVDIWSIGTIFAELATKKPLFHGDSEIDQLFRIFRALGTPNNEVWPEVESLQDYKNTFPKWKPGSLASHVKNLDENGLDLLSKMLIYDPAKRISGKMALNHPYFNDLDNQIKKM
Sequence of CDK1/cyclin B (P14635 whole entry partner, species assumed): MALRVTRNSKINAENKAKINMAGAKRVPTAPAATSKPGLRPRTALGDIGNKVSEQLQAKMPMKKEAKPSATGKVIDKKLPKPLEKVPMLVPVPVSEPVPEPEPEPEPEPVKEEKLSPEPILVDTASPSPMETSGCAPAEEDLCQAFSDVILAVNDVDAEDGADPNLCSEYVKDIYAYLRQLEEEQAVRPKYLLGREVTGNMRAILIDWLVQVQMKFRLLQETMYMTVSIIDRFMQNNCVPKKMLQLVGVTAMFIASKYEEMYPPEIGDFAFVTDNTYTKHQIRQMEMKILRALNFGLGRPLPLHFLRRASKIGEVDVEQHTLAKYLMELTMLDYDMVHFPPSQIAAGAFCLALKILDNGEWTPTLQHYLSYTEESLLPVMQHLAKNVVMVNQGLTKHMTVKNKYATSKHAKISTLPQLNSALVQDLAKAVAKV

| Structure (SMILES) | IC50 (CDK1/cyclin B; [1]) [µM] | IC50 (CDK2/cyclin A; Table 2, read-out: CDK2) [µM] | IC50 (CDK4/cyclin D1; [2]) [µM] | IC50 (CDK1/cyclin B; Table 4, read-out: IC50 (μM) CDK1) [µM] | IC50 (CDK2/cyclin A; Table 4, read-out: IC50 (μM) CDK2) [µM] | IC50 (CDK4/cyclin D1; Table 4, read-out: IC50 (μM) CDK4) [µM] |
| --- | --- | --- | --- | --- | --- | --- |
| CN(C)C(=O)c1cc2cnc(Nc3ccc(C4CCN(CCO)CC4)cn3)nc2n1C1CCCC1 [Example 100, 7-Cyclopentyl-2-[1′-(2-hydroxy-ethyl)-1′,2′,3′,4′,5′,6′-hexahydro-[3,4]bipyridinyl-6-ylamino]-7H-pyrrolo[2,3-d]pyrimidine-6-carboxylic acid dimethylamide] | > 15 | > 15 | 0.01 to 0.1 |  |  |  |
| CN(C)C(=O)c1cc2cnc(Nc3ccc(N4CCC(N(C)C)CC4)cn3)nc2n1C1CCCC1 [Example 6, 7-Cyclopentyl-2-(4-dimethylamino-3,4,5,6-tetrahydro-2-[1,3′]bipyridinyl-6′-ylamino)-7H-pyrrolo[2,3-d]pyrimidine-6-carboxylic acid dimethylamide] | > 15 | > 15 | 0.001 to 0.01 |  |  |  |
| CC(C)CN1CCN(c2ccc(Nc3ncc4cc(C(=O)N(C)C)n(C5CCCC5)c4n3)nc2)CC1 [Example 92, 7-Cyclopentyl-2-[5-(4-isobutyl-piperazin-1-yl)-pyridin-2-ylamino]-7H-pyrrolo[2,3-d]pyrimidine-6-carboxylic acid dimethylamide] | > 15 | > 15 | 0.001 to 0.01 |  |  |  |
| C[C@H](O)CN1CCN(c2ccc(Nc3ncc4cc(C(=O)N(C)C)n(C5CCCC5)c4n3)nc2)CC1 [Example 56, 7-Cyclopentyl-2-{5-[4-((S)-2-hydroxy-propyl)-piperazin-1-yl]-pyridin-2-ylamino}-7H-pyrrolo[2,3-d]pyrimidine-6-carboxylic acid dimethylamide] | > 15 | > 15 | 0.01 to 0.1 |  |  |  |
| CC(C)N1CCN(c2ccc(Nc3ncc4cc(C(=O)N(C)C)n(C5CCCC5)c4n3)nc2)CC1 [Example 63, 7-Cyclopentyl-2-[5-(4-isopropyl-piperazin-1-yl)-pyridin-2-ylamino]-7H-pyrrolo[2,3-d]pyrimidine-6-carboxylic acid dimethylamide] | > 15 | > 15 | 0.001 to 0.01 | > 15 | > 15 | 0.008 |
| CN(C)C(=O)c1cc2cnc(Nc3ccc(N4CCN(CC#N)CC4)cn3)nc2n1C1CCCC1 [Example 84, 2-[5-(4-Cyanomethyl-piperazin-1-yl)-pyridin-2-ylamino]-7-cyclopentyl-7H-pyrrolo[2,3-d]pyrimidine-6-carboxylic acid dimethylamide] | > 15 | > 15 | 0.01 to 0.1 |  |  |  |
| CN(C)C(=O)c1cc2cnc(Nc3ccc(C(=O)N4CCC(O)CC4)cn3)nc2n1C1CCCC1 [Example 87, 7-Cyclopentyl-2-[5-(4-hydroxy-piperidine-1-carbonyl)-pyridin-2-ylamino]-7H-pyrrolo[2,3-d]pyrimidine-6-carboxylic acid dimethylamide] | 13 | > 15 | 0.01 to 0.1 |  |  |  |
| CN(C)C(=O)c1cc2cnc(Nc3ccc(N4CCN(CC(F)(F)F)CC4)cn3)nc2n1C1CCCC1 [Example 25, 7-Cyclopentyl-2-{5-[4-(2,2,2-trifluoro-ethyl)-piperazin-1-yl]-pyridin-2-ylamino}-7H-pyrrolo[2,3-d]pyrimidine-6-carboxylic acid dimethylamide] | > 15 | > 15 | 0.01 to 0.1 |  |  |  |
| CN(C)C(=O)c1cc2cnc(Nc3ccc(CN4CCC(O)CC4)cn3)nc2n1C1CCCC1 [Example 76, 7-Cyclopentyl-2-[5-(4-hydroxy-piperidin-1-ylmethyl)-pyridin-2-ylamino]-7H-pyrrolo[2,3-d]pyrimidine-6-carboxylic acid dimethylamide] | > 15 | > 15 | 0.01 to 0.1 |  |  |  |
| CN(C)C(=O)c1cc2cnc(Nc3ccc(N(C)CCO)cn3)nc2n1C1CCCC1 [Example 83, 7-Cyclopentyl-2-{5-[(2-hydroxy-ethyl)-methyl-amino]-pyridin-2-ylamino}-7H-pyrrolo[2,3-d]pyrimidine-6-carboxylic acid dimethylamide] | > 15 | > 15 | 0.1 to 1 |  |  |  |
| C[C@@H]1CN(c2ccc(Nc3ncc4cc(C(=O)N(C)C)n(C5CCCC5)c4n3)nc2)CCN1C(=O)OC(C)(C)C [Example 30, (R)-4-[6-(7-Cyclopentyl-6-dimethylcarbamoyl-7H-pyrrolo[2,3-d]pyrimidin-2-ylamino)-pyridin-3-yl]-2-methyl-piperazine-1-carboxylic acid tert-butyl ester] | > 15 | > 15 | 0.1 to 1 |  |  |  |
| CC1CN(Cc2ccc(Nc3ncc4cc(C(=O)N(C)C)n(C5CCCC5)c4n3)nc2)CCN1 (stereo not drawn) [Example 54, 7-Cyclopentyl-2-[5-(3-methyl-piperazin-1-ylmethyl)-pyridin-2-ylamino]-7H-pyrrolo[2,3-d]pyrimidine-6-carboxylic acid dimethylamide] | > 15 | > 15 | 0.01 to 0.1 |  |  |  |
| CC1CN(c2ccc(Nc3ncc4cc(C(=O)N(C)C)n(C5CCCC5)c4n3)nc2)CCN1 (stereo not drawn) [Example 19, 7-Cyclopentyl-2-[5-(3-methyl-piperazin-1-yl)-pyridin-2-ylamino]-7H-pyrrolo[2,3-d]pyrimidine-6-carboxylic acid dimethylamide] | > 15 | > 15 | 0.001 to 0.01 |  |  |  |
| C[C@H]1CN(Cc2ccc(Nc3ncc4cc(C(=O)N(C)C)n(C5CCCC5)c4n3)nc2)CCN1 [Example 55, 7-Cyclopentyl-2-[5-((S)-3-methyl-piperazin-1-ylmethyl)-pyridin-2-ylamino]-7H-pyrrolo[2,3-d]pyrimidine-6-carboxylic acid dimethylamide] | > 15 | > 15 | 0.01 to 0.1 |  |  |  |
| CN(C)C(=O)c1cc2cnc(Nc3ccc(CN4CCN(CCO)CC4)cn3)nc2n1C1CCCC1 [Example 85, 7-Cyclopentyl-2-{5-[4-(2-hydroxy-ethyl)-piperazin-1-ylmethyl]-pyridin-2-ylamino}-7H-pyrrolo[2,3-d]pyrimidine-6-carboxylic acid dimethylamide] | > 15 | > 15 | 0.01 to 0.1 |  |  |  |
| CN(C)C(=O)c1cc2cnc(Nc3ccc(C(=O)N(C)CCN)cn3)nc2n1C1CCCC1 [Example 41, 2-{5-[(2-Amino-ethyl)-methyl-carbamoyl]-pyridin-2-ylamino}-7-cyclopentyl-7H-pyrrolo[2,3-d]pyrimidine-6-carboxylic acid dimethylamide] | 14.8 | 4.7 | 0.001 to 0.01 |  |  |  |
| CC(=O)N1CCN(Cc2ccc(Nc3ncc4cc(C(=O)N(C)C)n(C5CCCC5)c4n3)nc2)CC1 [Example 61, 2-[5-(4-Acetyl-piperazin-1-ylmethyl)-pyridin-2-ylamino]-7-cyclopentyl-7H-pyrrolo[2,3-d]pyrimidine-6-carboxylic acid dimethylamide] | > 15 | > 15 | 0.1 to 1 |  |  |  |
| CN(C)C(=O)c1cc2cnc(Nc3ccc(N4CCN(CCC#N)CC4)cn3)nc2n1C1CCCC1 [Example 9, 2-{5-[4-(2-Cyano-ethyl)-piperazin-1-yl]-pyridin-2-ylamino}-7-cyclopentyl-7H-pyrrolo[2,3-d]pyrimidine-6-carboxylic acid dimethylamide] | > 15 | > 15 | 0.01 to 0.1 |  |  |  |
| CN(C)C(=O)c1cc2cnc(Nc3ccccn3)nc2n1C1CCC(C)(O)CC1 (stereo not drawn) [Example 40, 7-(4-Hydroxy-4-methyl-cyclohexyl)-2-(pyridin-2-ylamino)-7H-pyrrolo[2,3-d]pyrimidine-6-carboxylic acid dimethylamide] | > 15 | > 15 | 0.1 to 1 |  |  |  |
| CC(C)CCCN1CCN(c2ccc(Nc3ncc4cc(C(=O)N(C)C)n(C5CCCC5)c4n3)nc2)CC1 [Example 68, 7-Cyclopentyl-2-{5-[4-(4-methyl-pentyl)-piperazin-1-yl]-pyridin-2-ylamino}-7H-pyrrolo[2,3-d]pyrimidine-6-carboxylic acid dimethylamide] | > 15 | > 15 | 0.001 to 0.01 |  |  |  |
| CC(C)OCCN1CCN(c2ccc(Nc3ncc4cc(C(=O)N(C)C)n(C5CCCC5)c4n3)nc2)CC1 [Example 95, 7-Cyclopentyl-2-{5-[4-(2-isopropoxy-ethyl)-piperazin-1-yl]-pyridin-2-ylamino}-7H-pyrrolo[2,3-d]pyrimidine-6-carboxylic acid dimethylamide] | > 15 | > 15 | 0.01 to 0.1 |  |  |  |
| CCN1CCN(c2ccc(Nc3ncc4cc(C(=O)N(C)C)n(C5CCCC5)c4n3)nc2)CC1 [Example 78, 7-Cyclopentyl-2-[5-(4-ethyl-piperazin-1-yl)-pyridin-2-ylamino]-7H-pyrrolo[2,3d]pyrimidine-6-carboxylic acid dimethylamide] | > 15 | > 15 | 0.001 to 0.01 |  |  |  |
| CN(C)C(=O)c1cc2cnc(Nc3ccc(CN4CCNCC4)cn3)nc2n1C1CCCC1 [Example 42, 7-Cyclopentyl-2-(5-piperazin-1-ylmethyl-pyridin-2-ylamino)-7H-pyrrolo[2,3-d]pyri-midine-6-carboxylic acid dimethylamide] | > 15 | > 15 | 0.01 to 0.1 |  |  |  |
| CC(C)N1CCN(Cc2ccc(Nc3ncc4cc(C(=O)N(C)C)n(C5CCCC5)c4n3)nc2)CC1 [Example 62, 7-Cyclopentyl-2-[5-(4-isopropyl-piperazin-1-ylmethyl)-pyridin-2-ylamino]-7H-pyrrolo[2,3-d]pyrimidine-6-carboxylic acid dimethylamide] | > 15 | > 15 | 0.01 to 0.1 |  |  |  |

Reference: patent US8962630B2, “Pyrrolopyrimidine compounds and their uses” (Novartis AG, priority 2008, dated 2015)
